In experiment [1] the target is NiV F and NiV G glycoproteins (Nipah virus, UniProt Q9IH63). The format is cell-based.
The target in experiment [2] is HeV F and HeV G glycoproteins (Hendra virus, UniProt O89342). The format is cell-based.
Sequence of HeV F and HeV G glycoproteins (O89342 110-546 limits assumed): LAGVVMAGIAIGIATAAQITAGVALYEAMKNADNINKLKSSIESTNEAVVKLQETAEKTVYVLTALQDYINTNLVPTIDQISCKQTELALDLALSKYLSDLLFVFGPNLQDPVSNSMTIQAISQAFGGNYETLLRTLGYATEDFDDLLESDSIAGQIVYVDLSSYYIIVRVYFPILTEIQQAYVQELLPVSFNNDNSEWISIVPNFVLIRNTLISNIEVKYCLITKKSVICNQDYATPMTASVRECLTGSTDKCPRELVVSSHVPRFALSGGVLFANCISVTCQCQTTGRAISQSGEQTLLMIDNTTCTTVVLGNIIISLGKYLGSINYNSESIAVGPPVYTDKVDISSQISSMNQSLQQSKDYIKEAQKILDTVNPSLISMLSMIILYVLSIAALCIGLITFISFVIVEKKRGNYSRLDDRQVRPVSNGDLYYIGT
Sequence of HeV F and HeV G glycoproteins (O89342 27-109 partner limits assumed): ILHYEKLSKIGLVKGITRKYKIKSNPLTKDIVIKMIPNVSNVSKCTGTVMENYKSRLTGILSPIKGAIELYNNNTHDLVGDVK

Sequence of NiV F and NiV G glycoproteins (Q9IH63 110-546 limits assumed): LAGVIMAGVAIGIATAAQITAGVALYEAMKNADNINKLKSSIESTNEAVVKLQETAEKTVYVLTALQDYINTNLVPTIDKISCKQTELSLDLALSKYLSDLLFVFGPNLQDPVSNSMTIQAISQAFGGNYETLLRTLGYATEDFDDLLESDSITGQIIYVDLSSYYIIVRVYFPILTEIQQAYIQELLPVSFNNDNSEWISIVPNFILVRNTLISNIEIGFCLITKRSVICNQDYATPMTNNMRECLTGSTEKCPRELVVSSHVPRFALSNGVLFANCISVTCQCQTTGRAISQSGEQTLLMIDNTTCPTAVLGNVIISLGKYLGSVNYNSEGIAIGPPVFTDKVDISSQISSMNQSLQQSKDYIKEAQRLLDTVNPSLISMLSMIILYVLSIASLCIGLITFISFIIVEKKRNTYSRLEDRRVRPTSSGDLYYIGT
Sequence of NiV F and NiV G glycoproteins (Q9IH63 27-109 partner limits assumed): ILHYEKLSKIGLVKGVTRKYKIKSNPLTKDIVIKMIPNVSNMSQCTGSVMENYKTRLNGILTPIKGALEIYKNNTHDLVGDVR

Regarding `CC[C@H](C)[C@H](NC(=O)[C@H](Cc1ccc(O)cc1)NC(=O)[C@H](CC(=O)O)NC(=O)[C@H](CCCCN)NC(=O)[C@H](CO)NC(=O)[C@H](CCC(N)=O)NC(=O)[C@H](CCC(N)=O)NC(=O)[C@H](CC(C)C)NC(=O)[C@H](CO)NC(=O)[C@H](CCC(N)=O)NC(=O)[C@H](CC(N)=O)NC(=O)[C@H](CCSC)NC(=O)[C@H](CO)NC(=O)[C@H](CO)NC(=O)[C@@H](NC(=O)[C@H](CCC(N)=O)NC(=O)[C@H](CO)NC(=O)[C@H](CO)NC(=O)[C@@H](NC(=O)[C@H](CC(=O)O)NC(=O)[C@@H](NC(=O)[C@H](CCCCN)NC(C)=O)C(C)C)[C@@H](C)CC)[C@@H](C)CC)C(=O)N[C@@H](CCCCN)C(=O)N[C@@H](CCC(=O)O)C(=O)N[C@@H](C)C(=O)N[C@@H](CCC(N)=O)C(=O)N[C@@H](CCCNC(=N)N)C(=O)N[C@@H](CC(C)C)C(=O)N[C@@H](CC(C)C)C(=O)N[C@@H](CC(=O)O)C(=O)N[C@H](C(=O)N[C@H](C(=O)N[C@@H](CC(N)=O)C(=O)N1CCC[C@H]1C(=O)N[C@@H](CO)C(=O)N[C@@H](CC(C)C)C(=O)NCCOCCOCCOCCOCCOCCOCCOCCOCCOCCOCCOCCOCCC(=O)O)C(C)C)[C@@H](C)O` [C-PEG NiV FC2], the “reduction of activity versus N-PEG-NiV FC2” value in experiment [1] and in experiment [2] was “approximately 20 fold” in each case.
For “Ac-KQSSMISLQSQKSINSLPSQIRDYVQKTVLLAEDND-NH2 [capped-ScNiV FC2]”, the “inhibitory effect on cell-fusion (in words)” value in experiment [1] and in experiment [2] was “no inhibitory effect” throughout.
With “KQSSMISLQSQKSINSLPSQIRDYVQKTVLLAEDND [C-PEG-ScNiV FC2, reference compound]”, the “inhibitory effect on cell-fusion (in words)” value in experiment [1] and in experiment [2] was “no inhibitory activity” in each case. The “effect on virus infection (in words)” value in the experiment with live HeV and in the experiment on live NiV was “no effect at any concentration tested” each time. The “syncytial morphology and size (in words)” value in the experiment with live HeV and with live NiV was “identical to those observed in the absence of any peptide” in each case.

For the origin of these results see paper PMC1208959 (Virology Journal, 2005).
